From patent US20100160228A1, “METHOD FOR INHIBITING OR STIMULATING ANGIOGENESIS IN AN INDIVIDUAL” (VALTION TEKNILLINEN TUTKIMUSKESKUS, priority 2007, published 2010)

What was measured:
HUVEC [1] = experiment: Transwell chemotaxis assay towards VEGF; assay type: cell-based, human
Description: FIG. 3. TCPTP activity controls VEGF-dependent responses in endothelial cells. (A) HUVEC were transfected with the constitutively active TCPTP (TC37) or vector control (pCG), stimulated or not with VEGF, and stained for VEGFR2 (red) and nuclei (blue) after fixation and permeabilization. Arrows indicate VEGFR2 vesicles. (B) HUVEC were treated as in (A) and subjected to trypsin digestion on ice. VEGFR2 protected from trypsin (=internalized pool) was detected by immunoblotting. The intensities of VEGFR2 bands were quantified and are expressed relative to pCG-VEGF control. A representative experiment out of 2 with similar results is shown. (C) HUVEC were transfected with no oligo, siRNA against TCPTP or a control siRNA, and TCPTP expression was measured using immunoblotting. Cells were treated with 80 ng/ml VEGF and proliferation of sparse cells plated on gelatin was assayed after 16 h using BrdU-based assay (mean±SD; n=4-6; *, p<0.05). (D) HUVEC were transfected as in (A) and chemotaxis towards VEGF was measured using a Transwell assay for 4 hours. Cells adhering to the bottom of the filter were fixed and stained with crystal violet. Number of migrated cells was counted (mean±SEM, n=3).
(§1) FIG. 5. Controlled TCPTP activation inhibits VEGF-driven capillary formation, chemokinesis and chemotaxis. (A) HUVEC were cultured in fibrin gels and treated with or without VEGF and TAT peptides (200 nM). After 24 h the formation of capillary tubes was semiquantitatively scored. (B) HUVEC were plated on gelatin in the presence of the peptides (200 nM) or left untreated for 1 h. The cells were stimulated as indicated and migration of individual cells was tracked using time-lapse microscopy. Cumulative migration distance was plotted for randomly picked individual cells. (C) HUVEC were treated with 200 nM peptides and the transmigration assay was performed as in FIG. 3D. (D) HUVEC were transfected with siRNA against TCPTP or a control siRNA, and TCPTP expression was analysed with immunofluorescence. Equal exposures of TCPTP (green) and DAPI (blue) stainings are shown. 48 h post-transfection cells were subjected to transmigration assay as in […].
Chemotaxis assays. HUVEC electroporated with the DNA or siRNA or non-transfected HUVEC were treated with 200 nM α1TAT, ScrTAT or left untreated for 1 h. Transwell filters (8 μm pore size, Costar, Cambridge, Mass.) were coated with gelatin and medium (RPMI, 4 mM L-glutamine, 10% FBS) and VEGF (100 ng/ml) were added to the lower chamber. Cells were harvested from the culture plates, and transferred into the Transwell inserts (4×10^5 cells/well) in RPMI with 0.2% soybean trypsin inhibitor. […] The inserts were fixed in 4% paraformaldehyde, cells stained with 0.5% crystal violet and the number of migrated cells was counted using a microscope.

HUVEC [2] = experiment: Fibrin-gel in vitro angiogenesis (capillary tube formation) assay; assay type: cell-based, human; conditions: VEGF, 24 h, FIG. 5A
Description: as §1
Tube formation assays. In the fibrin-gel in vitro angiogenesis assay (Chemicon) HUVEC were plated onto a fibrin-gel, and overlaid with a second fibrin-gel after an overnight culture. […] At the 24 h end-point the formation of cellular networks was quantified from three randomly-selected fields from each well. […] In the collagen overlay assay the number of closed polygons formed by capillary tubes was quantified.

[3] = HUVEC, 48 h post-transfection, FIG. 5D

YGRKKRRQRRRWKLGFFKRPLKKKMEK (SEQ ID NO 3) [α1TAT]
effect on VEGF induced chemotaxis of TCPTP siRNA-treated cells (HUVEC [1]; [3]): no inhibitory effects | effect on VEGF-induced migration of scrambled siRNA treated cells (HUVEC [1]; [3]): effectively inhibited | inhibition of VEGF-induced chemotaxis of HUVEC (HUVEC [1]; peptide 200 nM, Transwell 4 h, FIG. 5C): inhibited | inhibition of capillary tube formation compared to control peptide treated cells (HUVEC [2]): 40% | inhibition of capillary tube formation compared to non-treated cells (HUVEC [2]): 60%
